According to patent US10087193B2, “Crystalline forms of dolutegravir sodium” (Mylan Laboratories Ltd., priority 2014, dated 2018):

How the values were obtained:
[1] = Physical and chemical stability on storage (PXRD, Karl Fischer water content, HPLC purity); conditions: for change in PXRD pattern on storage / degradation on storage / increase in moisture content on storage / physical and chemical stability (conclusion): 6 months at 40° C./75% RH and at 25° C./60% RH
Experimental: The physical and chemical stability of dolutegravir sodium Form-M2 and Form-M4 was determined by storing the samples at 40° C./75% relative humidity (RH) and at 25° C./60% RH for 6 months. At different time points during storage, the crystal structure of the material was analyzed by PXRD, the water content by Karl Fischer, and by HPLC for final purity.

[2] = Thermodynamic stability of the crystalline form; type: physicochemical
[3] = storage at 25° C./60% RH, 1 month
[4] = storage at 25° C./60% RH, 3 months
[5] = storage at 25° C./60% RH, 6 months
[6] = storage at 25° C./60% RH, Initial
[7] = storage at 40° C./75% RH, 1 month
[8] = storage at 40° C./75% RH, 3 months
[9] = storage at 40° C./75% RH, 6 months
[10] = storage at 40° C./75% RH, Initial

| Structure (SMILES) | change in PXRD pattern on storage [1] | degradation on storage [1] | increase in moisture content on storage [1] | physical and chemical stability (conclusion) [1] | HPLC purity (%) [1, 3] [%] | PXRD (polymorph found) [1, 3] | HPLC purity (%) [1, 4] [%] | PXRD (polymorph found) [1, 4] | HPLC purity (%) [1, 5] [%] | PXRD (polymorph found) [1, 5] | HPLC purity (%) [1, 6] [%] | PXRD (polymorph found) [1, 6] | HPLC purity (%) [1, 7] [%] | PXRD (polymorph found) [1, 7] | HPLC purity (%) [1, 8] [%] | PXRD (polymorph found) [1, 8] | HPLC purity (%) [1, 9] [%] | PXRD (polymorph found) [1, 9] | HPLC purity (%) [1, 10] [%] | PXRD (polymorph found) [1, 10] | also measured |
| --- | --- | --- | --- | --- | --- | --- | --- | --- | --- | --- | --- | --- | --- | --- | --- | --- | --- | --- | --- | --- | --- |
| C[C@@H]1CCO[C@H]2Cn3cc(C(=O)NCc4ccc(F)cc4F)c(=O)c([O-])c3C(=O)N12.[Na+] [Form-M2, sodium (4R, 12aS)-9-((2,4-difluorobenzyl)carbamoyl)-4-methyl-6,8-dioxo-3,4,6,8, 12, 12a-hexahydro-2H-pyrido[1′,2′:4,5]pyrazino[2,1-b][1,3]oxazin-7-olate] | no change in PXRD pattern | no significant degradation | no substantial increase in moisture content | physically and chemically stable | 99.6 | Form-M2 | 99.5 | Form-M2 | 99.5 | Form-M2 | 99.7 | Form-M2 | 99.6 | Form-M2 | 99.5 | Form-M2 | 99.5 | Form-M2 | 99.7 | Form-M2 |  |
| C[C@@H]1CCO[C@H]2Cn3cc(C(=O)NCc4ccc(F)cc4F)c(=O)c([O-])c3C(=O)N12.[Na+] [Form-M3, sodium (4R, 12aS)-9-((2,4-difluorobenzyl)carbamoyl)-4-methyl-6,8-dioxo-3,4,6,8, 12, 12a-hexahydro-2H-pyrido[1′,2′:4,5]pyrazino[2,1-b][1,3]oxazin-7-olate] |  |  |  |  |  |  |  |  |  |  |  |  |  |  |  |  |  |  |  |  | thermodynamic stability [2]: only metastable and not thermodynamically stable |
| C[C@@H]1CCO[C@H]2Cn3cc(C(=O)NCc4ccc(F)cc4F)c(=O)c([O-])c3C(=O)N12.[Na+] [Form-M4, sodium (4R, 12aS)-9-((2,4-difluorobenzyl)carbamoyl)-4-methyl-6,8-dioxo-3,4,6,8, 12, 12a-hexahydro-2H-pyrido[1′,2′:4,5]pyrazino[2,1-b][1,3]oxazin-7-olate] | no change in PXRD pattern | no significant degradation | no substantial increase in moisture content | physically and chemically stable | 99.17 | Form-M4 | 99.10 | Form-M4 | 99.0 | Form-M4 | 99.24 | Form-M4 | 99.2 | Form-M4 | 99.1 | Form-M4 | 99.0 | Form-M4 | 99.2 | Form-M4 |  |
